According to ChEMBL document CHEMBL1123078 (J Med Chem, 1985):

Key:
Escherichia coli [1] = assay: (§1) Relative in vitro Antibacterial activity against Escherichia coli CN314 strain; format: functional; parameters: reference not given here
Proteus vulgaris = assay: Relative in vitro Antibacterial activity against Proteus vulgaris CN329 strain; format: functional; parameters: unit not given here
Staphylococcus aureus = assay: Relative in vitro Antibacterial activity against Staphylococcus aureus CN491 strain; format: functional; parameters: unit not given here
Dihydrofolate reductase [2] = target: T1, Dihydrofolate reductase (Rattus norvegicus, UniProt Q920D2); assay: Binding affinity against Dihydrofolate reductase of rat liver; conditions: read-out: I50
T1 sequence (Q920D2 whole entry): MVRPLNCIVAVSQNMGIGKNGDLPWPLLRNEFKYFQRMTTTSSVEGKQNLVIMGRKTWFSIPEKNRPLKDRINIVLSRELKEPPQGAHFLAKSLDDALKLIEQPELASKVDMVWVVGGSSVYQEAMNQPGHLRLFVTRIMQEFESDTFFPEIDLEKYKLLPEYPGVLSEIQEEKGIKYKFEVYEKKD

Escherichia coli [3] = assay: as §1; format: functional; parameters: unit not given here
Salmonella = format: functional, salmonella typhosa; parameters: unit not given here
[4] = target: T2, Dihydrofolate reductase (Rattus norvegicus) (UniProt Q920D2); assay: Percent inhibition against Dihydrofolate reductase of rat liver at dose 0.42 mg/kg; format: organism-based; parameters: dose 0.42 mg/kg
T2 sequence (whole entry): T1 sequence (Q920D2 whole entry)

Dihydrofolate reductase [5] = target: T3, Dihydrofolate reductase (Gallus gallus, UniProt P00378); assay: Binding affinity against Dihydrofolate reductase Inhibitor of chicken liver; conditions: read-out: I50
T3 sequence (P00378 whole entry): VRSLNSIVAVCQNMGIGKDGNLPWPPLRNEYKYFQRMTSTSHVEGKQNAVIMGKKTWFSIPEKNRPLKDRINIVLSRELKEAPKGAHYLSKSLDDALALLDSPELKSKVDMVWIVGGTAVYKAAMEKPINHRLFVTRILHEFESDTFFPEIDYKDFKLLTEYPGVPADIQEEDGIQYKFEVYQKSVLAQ

Dihydrofolate reductase [6] = target: T3, Dihydrofolate reductase; assay: Binding affinity against Dihydrofolate reductase of chicken liver; conditions: read-out: I50
Dihydrofolate reductase [7] = target: T4, Dihydrofolate reductase (Escherichia coli, UniProt P0ABQ4); assay: Relative Binding affinity against Dihydrofolate reductase of Escherichia coli
T4 sequence (P0ABQ4 whole entry): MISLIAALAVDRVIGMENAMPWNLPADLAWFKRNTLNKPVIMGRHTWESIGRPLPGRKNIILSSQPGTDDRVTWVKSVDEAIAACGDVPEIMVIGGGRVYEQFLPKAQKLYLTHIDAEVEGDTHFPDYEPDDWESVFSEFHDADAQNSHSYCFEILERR

[8] = target: T2, Dihydrofolate reductase (Rattus norvegicus); assay: Percent inhibition against Dihydrofolate reductase of rat liver at dose 0.9 mg/kg; format: organism-based; parameters: dose 0.9 mg/kg
[9] = target: T2, Dihydrofolate reductase (Rattus norvegicus); assay: Percent inhibition against Dihydrofolate reductase of rat liver at dose 1.0 mg/kg; format: organism-based; parameters: dose 1 mg/kg

`COc1cc(Cc2cnc(N)nc2N)cc(OC)c1OC` [TRIMETHOPRIM] was tested, and the MIC (Escherichia coli [1]) was 1, the MIC (Proteus vulgaris) was 1 and the MIC (Staphylococcus aureus) was 1.
With `COc1cc(Cc2cnc(N)nc2N)cc(OCC(=O)O)c1OC` the IC50 (Dihydrofolate reductase [2]) was 70 µM, the MIC (Escherichia coli [1]) was 100 and the MIC (Proteus vulgaris) was greater than 100. For the same compound, the MIC (Staphylococcus aureus) was greater than 200.
Compound `COC(=O)CCCCOc1cc(Cc2cnc(N)nc2N)cc(OC)c1OC` has an IC50 (Dihydrofolate reductase [2]) of 130 µM, an MIC (Escherichia coli [3]) of 1000 and an MIC (Proteus vulgaris) greater than 100. The MIC (Staphylococcus aureus) was 2.
Compound `COC(=O)CCCCCOc1c(OC)cc(Cc2cnc(N)nc2N)cc1OC` has an MIC (Escherichia coli [3]) of 1000, an MIC (Proteus vulgaris) greater than 100 and an MIC (Staphylococcus aureus) of 6. The MIC (Salmonella) was 300.
With `COc1cc(Cc2cnc(N)nc2N)cc(OC)c1OCC(=O)O` the MIC (Escherichia coli [3]) was 300, the MIC (Proteus vulgaris) was greater than 100 and the MIC (Staphylococcus aureus) was 200. For the same compound, the MIC (Salmonella) was 100.
In the case of `COC(=O)CCCCCCOc1cc(Cc2cnc(N)nc2N)cc(OC)c1OC`, the IC50 (Dihydrofolate reductase [2]) is reported as 110 µM, the MIC (Escherichia coli [3]) is reported as 100 and the MIC (Proteus vulgaris) is reported as greater than 50. The MIC (Staphylococcus aureus) was 0.2 and the MIC (Salmonella) was 50.
With `COC(=O)COc1cc(Cc2cnc(N)nc2N)cc(OC)c1OC` the inhibition [4] was 15%, the MIC (Escherichia coli [3]) was 100 and the MIC (Proteus vulgaris) was greater than 100. The MIC (Staphylococcus aureus) was 200 and the MIC (Salmonella) was 1000.
In the case of `COc1cc(Cc2cnc(N)nc2N)cc(OCCCC(=O)O)c1OC`, the IC50 (Dihydrofolate reductase [5]) is reported as 22 µM, the IC50 (Dihydrofolate reductase [2]) is reported as 9.7 µM and the MIC (Escherichia coli [1]) is reported as 100. The MIC (Proteus vulgaris) was greater than 100 and the MIC (Staphylococcus aureus) was 20.
Compound `COc1cc(Cc2cnc(N)nc2N)cc(OC)c1OCCCC(=O)O` has an IC50 (Dihydrofolate reductase [6]) of 350 µM, a Ki (Dihydrofolate reductase [7]) of 0.0052 µM and an IC50 (Dihydrofolate reductase [2]) of 400 µM.
`COC(=O)CCCCCOc1cc(Cc2cnc(N)nc2N)cc(OC)c1OC` gave an IC50 (Dihydrofolate reductase [2]) of 180 µM, an MIC (Escherichia coli [3]) of 100 and an MIC (Proteus vulgaris) greater than 100. It also gave an MIC (Staphylococcus aureus) of 2 and an MIC (Salmonella) of 30.
For `CCOC(=O)CCCOc1cc(Cc2cnc(N)nc2N)cc(OC)c1OC`, the IC50 (Dihydrofolate reductase [2]) was 160 µM, the MIC (Escherichia coli [3]) was 100 and the MIC (Proteus vulgaris) was 50. It also gave an MIC (Staphylococcus aureus) of 10 and an MIC (Salmonella) of 100.
For `COc1cc(Cc2cnc(N)nc2N)cc(OCCC(=O)O)c1OC`, the IC50 (Dihydrofolate reductase [2]) was 74 µM, the MIC (Escherichia coli [1]) was 1 and the MIC (Proteus vulgaris) was greater than 100. For the same compound, the MIC (Staphylococcus aureus) was 20.
`CCOC(=O)COc1c(OC)cc(Cc2cnc(N)nc2N)cc1OC` gave an MIC (Escherichia coli [3]) of 100, an MIC (Proteus vulgaris) greater than 100 and an MIC (Staphylococcus aureus) of 60. For the same compound, the MIC (Salmonella) was 10.
Compound `COc1cc(Cc2cnc(N)nc2N)cc(OCCCCCC(=O)O)c1OC` has an IC50 (Dihydrofolate reductase [2]) of 35 µM, an MIC (Escherichia coli [1]) of 300 and an MIC (Proteus vulgaris) greater than 100. It also gave an MIC (Staphylococcus aureus) of 2.
Compound `COc1cc(Cc2cnc(N)nc2N)cc(OCCCCC(=O)O)c1OC` has an IC50 (Dihydrofolate reductase [2]) of 27 µM, an MIC (Escherichia coli [1]) of 300 and an MIC (Proteus vulgaris) greater than 100. For the same compound, the MIC (Staphylococcus aureus) was 2.
Compound `CCOC(=O)CCCOc1c(OC)cc(Cc2cnc(N)nc2N)cc1OC` has an inhibition [8] of 17%.
With `COC(=O)CCCCOc1c(OC)cc(Cc2cnc(N)nc2N)cc1OC` the inhibition [9] was 0%.
In the case of `COc1cc(Cc2cnc(N)nc2N)cc(OC)c1OCCCCC(=O)O`, the IC50 (Dihydrofolate reductase [2]) is reported as 640 µM.
In the case of `COc1cc(Cc2cnc(N)nc2N)cc(OC)c1OCCCCCC(=O)O`, the MIC (Escherichia coli [3]) is reported as 30, the MIC (Proteus vulgaris) is reported as greater than 100 and the MIC (Staphylococcus aureus) is reported as 6. It also gave an MIC (Salmonella) of 30.
`COc1cc(Cc2cnc(N)nc2N)cc(OCCCCCCC(=O)O)c1OC` gave an IC50 (Dihydrofolate reductase [2]) of 56 µM, an MIC (Escherichia coli [1]) of 100 and an MIC (Proteus vulgaris) greater than 50. The MIC (Staphylococcus aureus) was 1.
